Source: patent US9718828B2 (MERCK SHARP & DOHME CORP., priority 2011, dated 2017)
Like-named read-outs stand apart in the source and are kept apart here.

Molecular target: hBTK (full-length BTK, 6HIS-tag cleaved) (Homo sapiens (Human), UniProt Q06187)
Experiment: BTK enzymatic activity, IMAP-FP assay (Assay Method B)
Assay type: biochemical
Conditions: IMAP-FP, 1.05 nM hBTK, 5 μM ATP, read-out: IC50 Btk activity values - Assay Method B
Protocol: BTK enzymatic activity was determined in an IMAP-FP assay (Immobilized Metal ion Affinity-based fluorescence Polarization; Molecular Devices). […] Phosphorylation reactions were allowed to proceed for 120 minutes and were immediately quenched by the addition of 40 μL IMAP detection beads resuspended in IMAP progressive binding buffer (beads were diluted 1:600 in 75% and 25% progressive binding buffer A and B, respectively; Molecular Devices). Plates were read on Packard microplate reader after 60 minutes binding equilibration using Fluorescence Polarization protocol.

[1] = class 100-1000 is given as ≧100 nM-<1 μM

Sequence of hBTK (full-length BTK, 6HIS-tag cleaved) (Q06187 whole entry): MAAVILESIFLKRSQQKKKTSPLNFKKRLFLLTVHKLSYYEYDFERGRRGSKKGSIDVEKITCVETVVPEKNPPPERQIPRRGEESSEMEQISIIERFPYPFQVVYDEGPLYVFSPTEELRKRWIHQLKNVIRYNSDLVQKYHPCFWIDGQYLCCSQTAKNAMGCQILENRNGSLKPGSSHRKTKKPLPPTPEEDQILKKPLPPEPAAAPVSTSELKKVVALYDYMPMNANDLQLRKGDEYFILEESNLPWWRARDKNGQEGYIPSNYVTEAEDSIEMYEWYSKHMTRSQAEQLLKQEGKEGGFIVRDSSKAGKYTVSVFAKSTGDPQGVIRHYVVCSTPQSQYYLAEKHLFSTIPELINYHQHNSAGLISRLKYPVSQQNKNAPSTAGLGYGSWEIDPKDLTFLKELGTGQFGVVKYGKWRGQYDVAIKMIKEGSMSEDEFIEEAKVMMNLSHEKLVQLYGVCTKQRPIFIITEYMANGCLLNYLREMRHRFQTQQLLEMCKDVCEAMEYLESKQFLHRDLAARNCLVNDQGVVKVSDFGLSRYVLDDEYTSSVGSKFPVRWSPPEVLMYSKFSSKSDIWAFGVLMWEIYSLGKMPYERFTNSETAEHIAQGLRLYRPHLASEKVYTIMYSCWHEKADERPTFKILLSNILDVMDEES

IC50 [1]	IC50	SMILES
< 10 nM	–	COc1ccnc(NC(=O)c2ccc(-c3nc([C@@H]4CC[C@H](C)N(C(=O)C5(C)COC5)C4)n4ccnc(N)c34)cc2)c1 [Example 403, 4-(8-amino-3-{(3R,6S)-6-methyl-1-[(3-methyloxetan-3-yl)carbonyl]piperidin-3-yl}imidazo[1,5-a]pyrazin-1-yl)-N-(4-methoxypyridin-2-yl)benzamide]
< 10 nM	–	CCOc1ccnc(NC(=O)c2ccc(-c3nc([C@@H]4CC[C@H](C)N(C(=O)C5(C)COC5)C4)n4ccnc(N)c34)cc2)c1 [Example 404, 4-(8-amino-3-{(3R,6S)-6-methyl-1-[(3-methyloxetan-3-yl)carbonyl]piperidin-3-yl}imidazo[1,5-a]pyrazin-1-yl)-N-(4-ethoxypyridin-2-yl)benzamide]
100 to 1000 nM	–	C[C@@H]1CC[C@@H](c2nc(-c3ccc(C(=O)Nc4cc(C(F)(F)F)ccn4)cc3)c3c(N)nccn23)CN1C(=O)C1(C)COC1 [Example 405, 4-(8-amino-3-{(3R,6R)-6-methyl-1-[(3-methyloxetan-3-yl)carbonyl]piperidin-3-yl}imidazo[1,5-a]pyrazin-1-yl)-N-[4-(trifluoromethyl)pyridin-2-yl]benzamide]
10 to 100 nM	–	CCN1C[C@@H](c2nc(-c3ccc(C(=O)Nc4cc(C(F)(F)F)ccn4)cc3)c3c(N)nccn23)CC[C@@H]1C(F)(F)F [Example 406, 4-{8-amino-3-[(3S,6R)-1-ethyl-6-(trifluoromethyl)piperidin-3-yl]imidazo[1,5-a]pyrazin-1-yl}-N-[4-(trifluoromethyl)pyridin-2-yl]benzamide]
10 to 100 nM	–	C[C@H]1CC[C@H](c2nc(-c3ccc(C(=O)Nc4cc(C(F)(F)F)ccn4)cc3)c3c(N)nccn23)CN1C(=O)C1(C)COC1 [Example 407, 4-(8-amino-3-{(3S,6S)-6-methyl-1-[(3-methyloxetan-3-yl)carbonyl]piperidin-3-yl}imidazo[1,5-a]pyrazin-1-yl)-N-[4-(trifluoromethyl)pyridin-2-yl]benzamide]
< 10 nM	–	Nc1ncc(F)n2c([C@@H]3CCCN(C(=O)C4CC4)C3)nc(-c3ccc(C(=O)Nc4cc(C(F)(F)F)ccn4)cc3)c12 [Example 463, 4-{8-amino-3-[(3R)-1-(cyclopropylcarbonyl)piperidin-3-yl]-5-fluoroimidazo[1,5-a]pyrazin-1-yl}-N-[4-(trifluoromethyl)pyridin-2-yl]benzamide]
10 to 100 nM	–	Cc1cc(-c2nc([C@@H]3CCCN(C(=O)C4(C)COC4)C3)n3ccnc(N)c23)ccc1C(=O)Nc1cc(C(F)(F)F)ccn1 [Example 474, 4-(8-amino-3-{(3R)-1-[(3-methyloxetan-3-yl)carbonyl]piperidin-3-yl}imidazo[1,5-a]pyrazin-1-yl)-2-methyl-N-[4-(trifluoromethyl)pyridin-2-yl]benzamide]
10 to 100 nM	–	COCCC(=O)N1CCC[C@@H](c2nc(-c3ccc(C(=O)Nc4ccccn4)cc3O)c3c(N)nccn23)C1 [Example 475, 4-{8-amino-3-[(3R)-1-(3-methoxypropanoyl)piperidin-3-yl]imidazo[1,5-a]pyrazin-1-yl}-3-hydroxy-N-pyridin-2-ylbenzamide]
10 to 100 nM	–	Cc1cc(C(=O)Nc2cc(C(F)(F)F)ccn2)ccc1-c1nc([C@@H]2CCCN(C(=O)C3(C)COC3)C2)n2ccnc(N)c12 [Example 479, 4-(8-amino-3-{(3R)-1-[(3-methyloxetan-3-yl)carbonyl]piperidin-3-yl}imidazo[1,5-a]pyrazin-1-yl)-3-methyl-N-[4-(trifluoromethyl)pyridin-2-yl]benzamide]
10 to 100 nM	–	Cn1cc(CN2CCO[C@@H](c3nc(-c4ccc(C(=O)Nc5cc(C(F)(F)F)ccn5)cc4)c4c(N)nccn34)C2)cn1 [Example 495, 4-(8-amino-3-{(2R)-4-[(1-methyl-1H-pyrazol-4-yl)methyl]morpholin-2-yl}imidazo[1,5-a]pyrazin-1-yl)-N-[4-(trifluoromethyl)pyridin-2-yl]benzamide]
10 to 100 nM	–	CCN1CCO[C@@H](c2nc(-c3ccc(C(=O)Nc4cc(C(F)(F)F)ccn4)cc3)c3c(N)nccn23)C1 [Example 496, 4-{8-amino-3-[(2R)-4-ethylmorpholin-2-yl]imidazo[1,5-a]pyrazin-1-yl}-N-[4-(trifluoromethyl)pyridin-2-yl]benzamide]
10 to 100 nM	–	CN1CCO[C@@H](c2nc(-c3ccc(C(=O)Nc4cc(C(F)(F)F)ccn4)cc3)c3c(N)nccn23)C1 [Example 497, 4-{8-amino-3-[(2R)-4-methylmorpholin-2-yl]imidazo[1,5-a]pyrazin-1-yl}-N-[4-(trifluoromethyl)pyridin-2-yl]benzamide]
10 to 100 nM	–	Cn1cc(CN2CCO[C@@H](c3nc(-c4ccc(C(=O)Nc5cc(C6CC6)ccn5)cc4)c4c(N)nccn34)C2)cn1 [Example 498, 4-(8-amino-3-{(2R)-4-[(1-methyl-1H-pyrazol-4-yl)methyl]morpholin-2-yl}imidazo[1,5-a]pyrazin-1-yl)-N-(4-cyclopropylpyridin-2-yl)benzamide]
10 to 100 nM	–	Nc1nccn2c([C@H]3CN(C(=O)C4(N)CCC4)CCO3)nc(-c3ccc(C(=O)Nc4cc(C(F)(F)F)ccn4)cc3)c12 [Example 499, 4-(8-amino-3-{(2R)-4-[(1-aminocyclobutyl)carbonyl]morpholin-2-yl}imidazo[1,5-a]pyrazin-1-yl)-N-[4-(trifluoromethyl)pyridin-2-yl]benzamide]
10 to 100 nM	–	COCC1(C(=O)N2CCO[C@@H](c3nc(-c4ccc(C(=O)Nc5cc(C(F)(F)F)ccn5)cc4)c4c(N)nccn34)C2)CCC1 [Example 500, 4-{8-amino-3-[(2R)-4-{[1-(methoxymethyl)cyclobutyl]carbonyl}morpholin-2-yl]imidazo[1,5-a]pyrazin-1-yl}-N-[4-(trifluoromethyl)pyridin-2-yl]benzamide]
100 to 1000 nM	–	CN1CCN(C)[C@@H](c2nc(-c3ccc(C(=O)Nc4cc(C(F)(F)F)ccn4)cc3)c3c(N)nccn23)C1 [Example 565, 4-{8-amino-3-[(2R)-1,4-dimethylpiperazin-2-yl]imidazo[1,5-a]pyrazin-1-yl}-N-[4-(trifluoromethyl)pyridin-2-yl]benzamide]
100 to 1000 nM	–	Cn1cc(CN2CCN[C@@H](c3nc(-c4ccc(C(=O)Nc5cc(C(F)(F)F)ccn5)cc4)c4c(N)nccn34)C2)cn1 [Example 566, 4-(8-amino-3-{(2R)-4-[(1-methyl-1H-pyrazol-4-yl)methyl]piperazin-2-yl}imidazo[1,5-a]pyrazin-1-yl)-N-[4-(trifluoromethyl)pyridin-2-yl]benzamide]
–	≥ 1000 nM	CC1(C(=O)N2CCN[C@@H](c3nc(-c4ccc(C(=O)Nc5cc(C(F)(F)F)ccn5)cc4)c4c(N)nccn34)C2)CC1 [Example 567, 4-(8-amino-3-{(2R)-4-[(1-methylcyclopropyl)carbonyl]piperazin-2-yl}imidazo[1,5-a]pyrazin-1-yl)-N-[4-(trifluoromethyl)pyridin-2-yl]benzamide]
100 to 1000 nM	–	Cn1cc(CN2CCS(=O)(=O)C(c3nc(-c4ccc(C(=O)Nc5cc(C(F)(F)F)ccn5)cc4)c4c(N)nccn34)C2)cn1 (stereo not drawn) [Example 569, 4-(8-amino-3-{4-[(1-methyl-1H-pyrazol-4-yl)methyl]-1,1-dioxidothiomorpholin-2-yl}imidazo[1,5-a]pyrazin-1-yl)-N-[4-(trifluoromethyl)pyridin-2-yl]benzamide]
100 to 1000 nM	–	CN1CCS(=O)(=O)C(c2nc(-c3ccc(C(=O)Nc4cc(C(F)(F)F)ccn4)cc3)c3c(N)nccn23)C1 (stereo not drawn) [Example 570, 4-[8-amino-3-(4-methyl-1,1-dioxidothiomorpholin-2-yl)imidazo[1,5-a]pyrazin-1-yl]-N-[4-(trifluoromethyl)pyridin-2-yl]benzamide]
< 10 nM	–	Nc1ncc(Br)n2c([C@@H]3CCCN(C(=O)C4CC4)C3)nc(-c3ccc(C(=O)Nc4cc(C(F)(F)F)ccn4)cc3)c12 [Example 577, (R)-4-(8-amino-5-bromo-3-(1-(cyclopropanecarbonyl)piperidin-3-yl)imidazo[1,5-a]pyrazin-1-yl)-N-(4-(trifluoromethyl)pyridin-2-yl)benzamide]
